Data: ChEMBL document CHEMBL1138927, “Neurotrophic peptide aldehydes: solid phase synthesis of fellutamide B and a simplified analog” (Bioorg Med Chem Lett, 2006)
Activity calls are given as the source filed them. The calls are words filed in the database; no cut-off is given here. Residues, ends and D or L forms follow the SMILES beside them. *: point of attachment. Octanoyl = CCCCCCCC(=O)*

Legend:
Assay type in all cases: functional, cell-based
[1] = test system: LM; assay: Induction of NGF secretion in LM cells at 50 uM after 24 hrs; conditions: Mus musculus
[2] = test system: KB; assay: Cytotoxicity against human KB cell line by [3H] thymidine incorporation assay
[3] = test system: PC-12; assay: Cytotoxicity against rat PC12 cell line by [3H] thymidine incorporation assay; conditions: PC-12, 24 h
[4] = test system: LM; assay: Cytotoxicity against mouse LM cell line by [3H] thymidine incorporation assay

Compound	Activity [1]	IC50 [2]	IC50 [3]	IC50 [4]
CCCCCCCCC[C@@H](O)CC(=O)N[C@@H](CC(N)=O)C(=O)N[C@@H](CCC(N)=O)C(=O)N[C@H](C=O)CC(C)C [FELLUTAMIDE B]	Active	0.349 µM	0.437 µM	0.482 µM
CCCCCCCC(=O)N[C@@H](CC(N)=O)C(=O)N[C@@H](CCC(N)=O)C(=O)N[C@H](C=O)CC(C)C (Octanoyl-Asn-Gln-Leu-aldehyde)	Active	4.83 µM	1.67 µM	3.33 µM
